# Publication PMC9029089, “1,5-Disubstituted Acylated 2-Amino-4,5-dihydroimidazoles as a New Class of Retinoic Acid Receptor–Related Orphan Receptor (ROR) Inhibitors” (International Journal of Molecular Sciences, 2022)
# Like-named read-outs stand apart in the source and are kept apart here.
# What was measured:
# Assay type in all cases: cell-based
# RORα = molecular target: T1, RORα (Homo sapiens, UniProt P35398); assay: Gal4-RORα-LBD UAS-luciferase reporter assay in TRex-CHO-K1 cells (doxycycline-stimulated)
# T1 construct: hRORα (Pro-211-end); expressed in transfected cells
# T1 sequence (P35398 266-523): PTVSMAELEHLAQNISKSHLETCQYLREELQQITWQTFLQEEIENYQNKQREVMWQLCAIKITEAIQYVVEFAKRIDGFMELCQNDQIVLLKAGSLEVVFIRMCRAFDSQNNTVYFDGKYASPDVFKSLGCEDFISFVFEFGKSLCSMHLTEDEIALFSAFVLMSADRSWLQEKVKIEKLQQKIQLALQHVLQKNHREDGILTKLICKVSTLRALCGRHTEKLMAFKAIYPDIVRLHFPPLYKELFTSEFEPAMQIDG
# Excerpt: (§1) The Gal4-DBD-ROR-LBD fusion proteins were subcloned in the pcDNA4/TO expression vector (Thermo Scientific) and transfected into TRex-CHO-K1 cells (Thermo Scientific) for tetracycline-controlled expression of the corresponding ROR proteins. Transfected cells were selected with hygromycin and Zeocin and individual clones for each of the Gal4-RORγ, Gal4-RORα, and Gal4-RORβ cell lines were isolated using a standard serial dilution protocol. Clones with the highest doxycycline-dependent stimulation of luciferase activity were selected for all functional experiments.
# (§2) For screening FIU libraries, cells were resuspended in Ham’s F-12 assay medium containing 2% charcoal-treated FBS and no selection drugs. […] Cells were allowed to attach for 2 h, followed by compound treatment and stimulation with 20 ng/mL doxycycline for an additional 16–20 h. Appropriate solvent controls, negative controls with no doxycycline, and blanks with no cells were included in every plate. Prior to measuring luciferase activity, 6 µL of 0.15 mg/mL resazurin (Cayman Chemical) in PBS were added and cells were incubated for 1 h at 37 °C. Fluorescence intensity was detected at 545 nm excitation/590 nm emission using a CLARIOstar reader (BMGLabtech) as a measure of cell viability, to identify any potential cytotoxic effect of test compounds and mixtures.
# (§3) Luminescence was normalized by the fluorescence intensity and the percentage of inhibition was calculated with respect to control cells stimulated with doxycycline in the presence of solvent control (0.1% DMF). All primary screens with individual compounds were performed in triplicate with a final concentration of 5 µg/mL. […] IC50 values were calculated using GraphPrism (GraphPad software).
# RORγ [1] = molecular target: T2, RORγ (Mus musculus, UniProt P51450); assay: Gal4-RORγ-LBD UAS-luciferase reporter assay in TRex-CHO-K1 cells (doxycycline-stimulated); details: library 2520, RORγ cells
# T2 construct: mRORγ (Pro-261-end); expressed in transfected cells
# T2 sequence (P51450 261-516 limits assumed): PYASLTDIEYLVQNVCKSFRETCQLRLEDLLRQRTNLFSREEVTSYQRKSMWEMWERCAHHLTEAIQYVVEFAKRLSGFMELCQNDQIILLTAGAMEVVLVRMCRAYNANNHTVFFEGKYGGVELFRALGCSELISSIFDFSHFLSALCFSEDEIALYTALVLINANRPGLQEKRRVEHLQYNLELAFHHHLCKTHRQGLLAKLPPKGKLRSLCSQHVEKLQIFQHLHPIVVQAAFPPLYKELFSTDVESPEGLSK
# RORβ = molecular target: T3, RORβ (Rattus norvegicus, UniProt P45446); assay: Gal4-RORβ-LBD UAS-luciferase reporter assay in TRex-CHO-K1 cells (doxycycline-stimulated)
# T3 construct: rRORβ (Pro 205-end); expressed in transfected cells
# T3 sequence (P45446 205-459 isoform P45446-1): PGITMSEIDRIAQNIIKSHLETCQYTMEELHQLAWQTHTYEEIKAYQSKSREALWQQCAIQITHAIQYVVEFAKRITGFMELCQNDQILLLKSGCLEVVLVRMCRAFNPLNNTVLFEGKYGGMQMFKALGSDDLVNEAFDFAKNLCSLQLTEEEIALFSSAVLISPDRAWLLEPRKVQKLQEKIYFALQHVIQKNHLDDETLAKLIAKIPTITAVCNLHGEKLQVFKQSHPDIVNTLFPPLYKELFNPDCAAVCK
# Excerpt: To investigate the transcriptional activity of all three RORs, we generated stable cell lines expressing an UAS-driven luciferase reporter together with the corresponding Gal4-DNA binding domain fused to the ligand binding domains (LBDs) of mRORγ (Pro-261-end), hRORα (Pro-211-end), or rRORβ (Pro 205-end). The Gal4-DBD-ROR-LBD fusion proteins were subcloned in the pcDNA4/TO expression vector (Thermo Scientific) and transfected into TRex-CHO-K1 cells (Thermo Scientific) for tetracycline-controlled expression of the corresponding ROR proteins. Transfected cells were selected with hygromycin and Zeocin and individual clones for each of the Gal4-RORγ, Gal4-RORα, and Gal4-RORβ cell lines were isolated using a standard serial dilution protocol. Clones with the highest doxycycline-dependent stimulation of luciferase activity were selected for all functional experiments. All cell lines were maintained in complete Ham’s F12 medium containing 10% fetal bovine serum (FBS), 10 µg/mL blasticidine, 100 µg/mL hygromycin, and 100 µg/mL Zeocin and were used within 2 months of culture without any loss of doxycycline-dependent stimulation of luciferase activity.
# For screening FIU libraries, cells were resuspended in Ham’s F-12 assay medium containing 2% charcoal-treated FBS and no selection drugs. Ten thousand cells per well were seeded in 30 µL of assay medium in 384 white plates with clear bottom (Greiner). Cells were allowed to attach for 2 h, followed by compound treatment and stimulation with 20 ng/mL doxycycline for an additional 16–20 h. Appropriate solvent controls, negative controls with no doxycycline, and blanks with no cells were included in every plate. Prior to measuring luciferase activity, 6 µL of 0.15 mg/mL resazurin (Cayman Chemical) in PBS were added and cells were incubated for 1 h at 37 °C. Fluorescence intensity was detected at 545 nm excitation/590 nm emission using a CLARIOstar reader (BMGLabtech) as a measure of cell viability, to identify any potential cytotoxic effect of test compounds and mixtures. Following the resazurin assay, the medium was removed and 20 µL of BriteLite-Plus luciferase reagent (Perking Elmer) were added; luminescence was measured in a CLARIOstar reader using a 384 aperture spoon and a 0.1 sec measuring time interval.
# as §3
# RORγ [2] = molecular target: T2, RORγ; assay: Gal4-RORγ-LBD UAS-luciferase reporter assay in TRex-CHO-K1 cells (doxycycline-stimulated)
# Excerpt: as §1, §2, §3
# [3] = read-out: IC50 (μM, N=4) ROR-Alpha, library 2520
# [4] = read-out: IC50 (μM, N=4) ROR-Beta, library 2520
# [5] = read-out: IC50 (μM, N=4) ROR-Gamma, library 2520
# [6] = IC50 (μM) (N=4) RORα, individual controls of library 1295, second confirmatory dose response, Figure 2
# [7] = IC50 (μM) (N=4) RORβ, individual controls of library 1295, second confirmatory dose response, Figure 2
# [8] = IC50 (μM) (N=4) RORγ, individual controls of library 1295, second confirmatory dose response, Figure 2
# [9] = T-REx-CHO-K1, read-out: % Inhibition RORγ 5 μg/ml
# [10] = individual controls of library 1295, second confirmatory dose response, Figure 2
# [11] = T-REx-CHO-K1, individual controls 1295.201-307, 5 μg/ml, triplicate, read-out: % Inhibition RORγ 5 μg/ml
SMILES,IC50 (RORα; [6]),IC50 (RORβ; [7]),IC50 (RORγ [2]; [8]),inhibition at 5 µg/mL (RORγ [2]; [9]),IC50 (RORγ [2]; [10]),further results
CCC(C(=O)NC1=NCC(Cc2ccc3ccccc3c2)N1CCC1CC2CCC1C2)c1ccccc1 (mixture of isomers) [2520.11],–,–,–,–,–,IC50 (RORα; [3]): 10.3 ± 0.4 µM; % Inhibition at 4 μM (N=3) (RORγ [1]): 67.6%; IC50 (RORβ; [4]): 7.3 ± 0.8 µM; IC50 (RORγ [2]; [5]): 7.55 ± 0.5 µM
CCC(C(=O)NC1=NCC(C(C)CC)N1CC1CCCCC1)c1ccccc1 (mixture of isomers) [2520.15],–,–,–,–,–,IC50 (RORα; [3]): 5.97 ± 0.2 µM; % Inhibition at 4 μM (N=3) (RORγ [1]): 43.6%; IC50 (RORβ; [4]): 3.66 ± 0.3 µM; IC50 (RORγ [2]; [5]): 4.69 ± 0.2 µM
CCC(C(=O)NC1=NCC(Cc2ccccc2)N1CC1CCCCC1)c1ccccc1 (mixture of isomers) [2520.27],–,–,–,–,–,IC50 (RORα; [3]): 6.61 ± 0.3 µM; % Inhibition at 4 μM (N=3) (RORγ [1]): 97.7%; IC50 (RORβ; [4]): 4.89 ± 0.3 µM; IC50 (RORγ [2]; [5]): 4.8 ± 0.2 µM
CC(C)C(=O)NC1=NCC(Cc2ccccc2)N1CCC(C)c1ccccc1 (mixture of isomers) [2520.28],–,–,–,–,–,IC50 (RORα; [3]): 8.48 ± 0.4 µM; % Inhibition at 4 μM (N=3) (RORγ [1]): 69.8%; IC50 (RORβ; [4]): 6.17 ± 0.3 µM; IC50 (RORγ [2]; [5]): 6.37 ± 0.4 µM
CCOc1ccc(CC2CN=C(NC(=O)Cc3ccc(OC)cc3)N2CCC(C)c2ccccc2)cc1 (mixture of isomers) [2520.46],–,–,–,–,–,IC50 (RORα; [3]): 5.82 ± 0.3 µM; % Inhibition at 4 μM (N=3) (RORγ [1]): 67.3%; IC50 (RORβ; [4]): 5.46 ± 0.3 µM; IC50 (RORγ [2]; [5]): 5.31 ± 0.2 µM
O=C(Cc1ccccc1)NC1=NC[C@H](Cc2ccccc2)N1CCC1CCCCC1 [1295.261],15.3 ± 1.7 µM,17.1 ± 2.6 µM,17.2 ± 1.6 µM,95.9%,–,–
O=C(Cc1ccccc1)NC1=NC[C@H](Cc2ccccc2)N1CCCC1CCCCC1 [1295.268],10.1 ± 0.4 µM,10.4 ± 0.8 µM,–,103%,6.2 ± 0.6 µM,–
CC1CCC(CN2C(NC(=O)Cc3ccccc3)=NC[C@@H]2Cc2ccccc2)CC1 (stereo partly shown) [1295.269],9 ± 0.3 µM,9.3 ± 0.8 µM,5.8 ± 0.6 µM,104%,–,–
O=C(Cc1ccccc1)NC1=NC[C@H](Cc2ccccc2)N1CCC1CC2CCC1C2 (stereo partly shown) [1295.270],9 ± 0.2 µM,9.3 ± 4.9 µM,5.9 ± 3.3 µM,84.6%,–,–
O=C(NC1=NC[C@H](Cc2ccccc2)N1CCc1ccccc1)C1(c2ccccc2)CC1 [1295.272],–,14.2 ± 3.6 µM,–,–,8 ± 1 µM,IC50 (RORα; [10]): 9.8 ± 0.5 µM; inhibition at 5 µg/mL (RORγ [2]; [11]): 96%
CC(CC(=O)NC1=NC[C@H](Cc2ccccc2)N1CCc1ccccc1)c1ccccc1 (stereo partly shown) [1295.274],7.4 ± 0.2 µM,6.7 ± 0.3 µM,4.8 µM,105%,–,selectivity towards RORγ over RORα and RORβ (RORγ [2]; from IC50 values in reporter cells): slightly more selective than RORα/β
O=C(CCc1ccccc1)NC1=NC[C@H](Cc2ccccc2)N1CCc1ccccc1 [1295.289],12.7 ± 0.4 µM,12.8 ± 2.7 µM,–,–,7 ± 2.3 µM,inhibition at 5 µg/mL (RORγ [2]; [11]): 83.1%
CC(C)(C)C(=O)NC1=NC[C@H](Cc2ccccc2)N1CCc1ccccc1 [1295.298],–,10.8 ± 0.4 µM,–,–,10 ± 1.5 µM,IC50 (RORα; [10]): 9.6 ± 0.3 µM; inhibition at 5 µg/mL (RORγ [2]; [11]): 94.7%
O=C(CC1CCCCC1)NC1=NC[C@H](Cc2ccccc2)N1CCc1ccccc1 [1295.299],14.1 ± 1.6 µM,12.7 ± 4.2 µM,8.4 ± 1.5 µM,89.6%,–,–
O=C(CCCC1CCCCC1)NC1=NC[C@H](Cc2ccccc2)N1CCc1ccccc1 [1295.300],10.2 ± 0.4 µM,12.3 ± 0.8 µM,–,–,8.7 ± 2 µM,inhibition at 5 µg/mL (RORγ [2]; [11]): 82.8%
O=C(CCC1CCCCC1)NC1=NC[C@H](Cc2ccccc2)N1CCc1ccccc1 [1295.305],10.3 ± 3.7 µM,10.4 ± 0.7 µM,–,–,6.6 ± 1.4 µM,inhibition at 5 µg/mL (RORγ [2]; [11]): 82.8%
CC1CCC(C(=O)NC2=NC[C@H](Cc3ccccc3)N2CCc2ccccc2)CC1 (stereo partly shown) [1295.306],9.7 ± 1.6 µM,9.4 ± 0.6 µM,9.5 ± 2.6 µM,97.8%,–,–
O=C(CC1CC2CCC1C2)NC1=NC[C@H](Cc2ccccc2)N1CCc1ccccc1 (stereo partly shown) [1295.307],8.9 ± 0.4 µM,7.6 ± 0.3 µM,5.8 ± 0.4 µM,101%,–,–
